Reference: US8853274B1, “Compositions and methods for targeting glioblastomas cells” (Vanderbilt University, priority 2011, dated 2014)

Tests used:
Format in all cases: cell-based, human
GBM43 = experiment: Growth inhibition at day 5, spheroid GBM culture; settings: effects diminished after radiation
Description: (§1) (A) Known genetic features of selected GBM samples. WT: wild type; Amp: amplification; vIII: EGFRvIII; ND: not determined. (B) Spheroid GBM cultures were derived from freshly collected subcutaneous tumors and cultured for 2 weeks in stem cell media to enrich stem cell-like cancer cells. SF7225 was maintained as a primary spheroid culture. Growth inhibition at day 5 after treatment was determined as described in FIG. 5. *: p<0.01 by Student's t-test and growth inhibition ≧30% vs. the corresponding vehicle-treated groups. #: p<0.01 and >30% growth inhibition vs. the radiation only groups.
(§2) Work is now extended to a set of subcutaneous GBM xenografts (GBM) established by Dr. Jann Sarkaria and colleagues at Mayo Clinic. These samples are known to have mutational status of EGFR, p53 and PTEN and different radiosensitivity (FIG. 8A) (69-71). Because the cancer stem cell identity of CD133+ of the Mayo Clinic samples has not been validated by functional assays, the present inventor used the neurosphere culture that is widely utilized as a surrogate of GSCs for its ability to enrich GSC-like population (72, 73). Tumor response to GSI, FTI and/or radiation was determined as growth inhibition on day 5 after treatment, with a greater than 30% cell number reduction was defined as positive response mimicking the RECIST criteria (FIG. 8B). […] Therefore, the present inventor will continuously expand the GBM panel and determine the genomic features of all samples with focus on prevalent GBM-associated aberrations. On the basis of this molecularly characterized tumor panel, the present inventor will start to explore the potential biomarkers that may predict tumor response to the combination therapy of radiation, GSI and FTI by experiments described in herein.

GBM 44 = experiment: Growth inhibition at day 5, spheroid GBM culture
Description: as §1, §2

CD133+ GBM stem cells = experiment: Growth inhibition within 5 days, panel of glioblastoma xenograft samples; settings: 5-day period; in combination with 3 Gy radiation
Description: CD133+ cells were derived from multiple glioblastoma xenograft samples as indicated. The growth inhibitory effects by GSI and/or FTIs were determined as described in FIG. 5.
Therefore, effective killing of GBM stem cells may delay or even prevent tumor recurrence. […] In combination with radiation, GSIs or FTIs alone reduced cell numbers by ˜75%.

[1] = tested on: T4302 CD133+ cells expressing RhoB shRNA; experiment: Growth, caspase and Akt phosphorylation in RhoB shRNA cells; settings: 100 nM
Description: (A) T4302 CD133+ cells were infected with lentivirus directing expression of a non-targeting shRNA or two RhoB specific shRNA. Cells were lysed for immunoblotting 3 days after infection. (B, C) Two days after infection, cells were selected with puromycin for two days, and plated in 96-well plates for growth curve assays. Cell growth was measured on days 1, 3 and 5 after plating, and normalized to the corresponding readout on day 1. (D-F) After lentiviral infection and puromycin selection as described above, T4302 CD133+ cells were treated with 100 nM GSI, FTI, ±3 Gy radiation and plated for subsequent experiments. (D) Relative growth on day 5, (E) caspase activation on day 3, and (F) protein levels on day 1 after treatment were determined as described in FIG. 4. *: p<0.001 by Student's t-test in comparison to the corresponding control groups.

CC(C)(C(=O)NCC(F)(F)C(F)(F)F)C(=O)N[C@@H]1C(=O)Nc2ccccc2-c2ccccc21 [RO4929097]
tumor response (growth inhibition day 5), in words (GBM43): moderate response | growth inhibition on day 5 (GBM 44; 0 Gy): 48±3.2% | growth inhibition on day 5 (GBM 44; 3 Gy): 65±3.3% | growth inhibition / reduction of cell numbers (CD133+ GBM stem cells): ~75% | Akt phosphorylation in RhoB knockdown cells compared with control cells ([1]; day 1): greater reduction of Akt phosphorylation | sensitivity of RhoB shRNA cells (growth day 5, caspase day 3) ([1]; ±3 Gy): highly sensitive
